The source of these data is patent US8343539B2, “Compounds that bind α5β1 integrin and methods of use” (Regents of the University of Minnesota, priority 2006, dated 2013).

“Also recorded” adds a separate entry of the source. Where no end group is shown, it is not given here. (C16)2 = not defined here

Assay [1] deals with T1, integrin α5β1 (Homo sapiens, UniProt P05556+P08648).
T1 construct: endogenous in cells; host or cells: HUVEC (human umbilical vein endothelial cells)
As to the kind of experiment: Adhesion blocking with anti-integrin α5β1 antibody (JBS5). The conditions noted are these: 1 hour. It is filed as cell-based. As for the experimental part:
Adhesion blocking experiments: Blocking experiments were done using mouse anti-human integrin […] (P1D6), β1 (P5D2), α5β1 (JBS5), and αvβ3 (LM609) monoclonal antibodies (Chemicon Int.). All surfaces were transferred to 24- or 12-well plates and pre-incubated in 0.1% BSA media as described above. HUVECs were prepared and counted as described in the cell adhesion protocol. Cells were blocked by mixing the cell suspension with the appropriate antibody in 0.1% BSA media, and incubating for 30 minutes at 37° C., 5% CO2 with constant agitation. Blocked cells were then released onto LB and FN surfaces and allowed to adhere for 1 hour at 37° C., 5% CO2. For all blocking experiments, cells were seeded at 249 cells/mm^2 (lower seeding density was used here to reduce the amount of antibodies needed to block cell adhesion) and a final antibody concentration in each well was 20 μg/ml. Following incubation, surfaces were washed, and adhered cells were quantified as described in the cell adhesion protocol.

Assay [2] concerns HUVECs. Nature of the assay: Fibronectin production staining (Example 2). The conditions noted are these: 12 hours. In kind it is cell-based, human. The method, then: Fibronectin production staining: Surface preparation, transfer, and cellular work were all done as described in the previous methods. Only surfaces incubated with cells for 12 hours were stained. The staining protocol, involving a primary antibody for secreted fibronectin (Chemicon), a FITC-conjugated secondary antibody (Chemicon), and the Image-iT LIVE plasma membrane and nuclear labeling kit (Molecular Probes), was done as previously described in Example 1. A single photon confocal microscope (Olympus FluoView FV1000) was used for imaging. Two slides per substrate were prepared each during 2 separate experiments and each slide was imaged 2-4 times. The final images chosen were all taken from one experiment for consistency, but were representative of the images obtained from both experiments.

The test system of assay [3] is HUVECs. Nature of the assay: Extracellular fibronectin production by HUVECs (Example 1). It is filed as cell-based, human. The method, then:
(§1) Cell spreading and fibronectin production experiments: Surface transferring, cell seeding, and incubation were done in the same manner as in the adhesion experiment, with a cell density of 497 cells/mm^2, and incubation times of 1, 12, 24, 48, and 72 hour. At the end of each incubation, the surfaces were removed, washed with […] of PBS, and fixed in 1 ml of 4% paraformaldehyde (Sigma) in PBS for 15 minutes at 37° C., 5% CO2. After washing with PBS, surfaces were first labeled for secreted fibronectin: surfaces were subjected to a blocking solution (0.1% BSA in PBS) for 30 minutes, incubated for 1 hour with a primary antibody specific for secreted fibronectin (mouse anti-human fibronectin (P1H11) monoclonal antibody (Chemicon Int.) at a 1:500 dilution in blocking solution, and then for 45 minutes with a secondary antibody (IgG fluorescein (FITC) conjugated antibody; Chemicon Int.) at a 1:200 dilution in PBS. As a final step, cell membranes and nuclei were stained using the Image-iT™ LIVE Plasma Membrane and Nuclear Labeling Kit following the manufacturer's protocol for labeling fixed cells (Molecular Probes). After final washing, surfaces were mounted onto glass slides and stored at 4° C. protected from light. An inverted fluorescent microscope (Nikon Eclipse TE200 with Pixcell II LCM) was used for imaging. Fibronectin production was assessed visually, by comparing 10-20 fluorescence images from two samples for each substrate (two independent experiments performed at different days). Cell spreading was quantified from two samples per substrate (two independent experiments performed at different days) by measuring cell area with the NIH imaging software.

The test system of assay [4] is HUVECs. Nature of the assay: Actin cytoskeleton and focal adhesion staining. It is filed as cell-based, human. The conditions noted are these: 1-72 hours. As for the experimental part: Actin cytoskeleton and focal adhesion staining: Surface transferring, cell seeding, incubation, and fixing were done as described above. Staining for the actin cytoskeleton, focal adhesions, and nucleus of attached cells was done using the Actin Cytoskeleton and Focal Adhesion Staining Kit following the manufacturer's protocol (Chemicon Int.) and using 1:350 dilution for anti-vinculin antibody, 1:200 for the secondary antibody, approximately 1:1000 dilution (equivalent to 1 unit/surface) for TRITC-conjugated phalloidin and 1:1000 for DAPI. After washing, surfaces were mounted onto glass slides and stored at 4° C. protected from light. A confocal microscope (BIORAD Multiphoton Confocal 1024) was used for imaging.

In assay [5] the test system is HUVECs. Nature of the assay: HUVEC spreading on substrates (cell area). In kind it is cell-based, human. As for the experimental part:
as §1

T1 sequence (P08648 42-894 limits assumed): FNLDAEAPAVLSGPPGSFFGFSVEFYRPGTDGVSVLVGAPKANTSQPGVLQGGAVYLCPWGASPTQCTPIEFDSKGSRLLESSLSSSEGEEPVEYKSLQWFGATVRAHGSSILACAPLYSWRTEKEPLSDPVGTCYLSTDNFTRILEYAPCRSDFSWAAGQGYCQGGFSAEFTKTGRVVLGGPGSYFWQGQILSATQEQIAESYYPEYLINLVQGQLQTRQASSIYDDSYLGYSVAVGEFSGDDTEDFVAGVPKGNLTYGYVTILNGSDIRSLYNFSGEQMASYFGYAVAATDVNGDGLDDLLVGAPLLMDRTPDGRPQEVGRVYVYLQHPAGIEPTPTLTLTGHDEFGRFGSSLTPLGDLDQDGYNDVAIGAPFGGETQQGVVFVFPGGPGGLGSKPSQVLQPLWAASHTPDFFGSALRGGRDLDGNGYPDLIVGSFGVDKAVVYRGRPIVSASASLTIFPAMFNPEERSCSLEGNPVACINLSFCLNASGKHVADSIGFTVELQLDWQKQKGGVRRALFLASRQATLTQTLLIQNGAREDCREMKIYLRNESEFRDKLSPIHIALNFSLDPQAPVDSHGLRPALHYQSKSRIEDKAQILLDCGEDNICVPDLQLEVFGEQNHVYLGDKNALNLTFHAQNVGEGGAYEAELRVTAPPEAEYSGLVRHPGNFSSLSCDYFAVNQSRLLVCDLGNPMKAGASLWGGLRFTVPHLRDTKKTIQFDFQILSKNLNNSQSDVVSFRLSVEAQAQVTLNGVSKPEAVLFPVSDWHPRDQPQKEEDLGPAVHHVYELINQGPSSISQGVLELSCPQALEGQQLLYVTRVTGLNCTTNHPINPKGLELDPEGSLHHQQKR
T1 sequence (P08648 895-1049 partner limits assumed): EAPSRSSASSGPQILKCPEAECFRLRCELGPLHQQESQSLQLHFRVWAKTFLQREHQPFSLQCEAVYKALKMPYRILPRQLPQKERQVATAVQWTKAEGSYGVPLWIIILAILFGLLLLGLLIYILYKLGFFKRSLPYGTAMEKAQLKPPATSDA
T1 sequence (P05556 21-798): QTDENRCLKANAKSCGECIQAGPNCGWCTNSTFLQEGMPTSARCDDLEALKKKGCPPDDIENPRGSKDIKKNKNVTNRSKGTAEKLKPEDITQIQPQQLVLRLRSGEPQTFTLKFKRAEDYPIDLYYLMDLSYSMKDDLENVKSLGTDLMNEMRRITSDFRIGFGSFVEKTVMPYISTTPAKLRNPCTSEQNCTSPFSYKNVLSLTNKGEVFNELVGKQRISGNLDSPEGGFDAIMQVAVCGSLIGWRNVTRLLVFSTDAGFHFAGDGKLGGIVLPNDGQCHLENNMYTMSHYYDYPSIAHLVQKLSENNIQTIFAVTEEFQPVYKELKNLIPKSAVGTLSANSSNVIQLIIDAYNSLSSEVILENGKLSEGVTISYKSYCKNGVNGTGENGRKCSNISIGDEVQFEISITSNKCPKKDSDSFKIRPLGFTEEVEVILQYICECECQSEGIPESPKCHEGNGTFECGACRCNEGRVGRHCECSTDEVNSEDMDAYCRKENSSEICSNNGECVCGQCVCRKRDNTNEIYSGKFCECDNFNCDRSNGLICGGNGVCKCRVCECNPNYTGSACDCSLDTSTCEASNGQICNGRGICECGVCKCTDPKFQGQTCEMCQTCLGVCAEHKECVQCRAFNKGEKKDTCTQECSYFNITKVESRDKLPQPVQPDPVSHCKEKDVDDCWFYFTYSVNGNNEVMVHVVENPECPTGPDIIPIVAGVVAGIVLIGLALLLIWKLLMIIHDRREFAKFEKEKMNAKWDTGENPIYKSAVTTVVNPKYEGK

With “(C16)2-Glu-C2-KSSPHSRNSGSGSGSGSGRGDSP ({(C16)2-Glu-C2}-KSSPHSRNSGSGSGSGSGRGDSP; not fully specified; reading uncertain) [PR_b]”, the “reduction in cell adhesion compared to adhesion of non-blocked cells” value in assay [1] (anti-α5β1 antibody 20 μg/ml, HUVECs 249 cells/mm^2) is reported as 77.55±1.50%. For the same substance, the “Integrin mediating HUVEC adhesion to the surface” value in assay [1] (antibody blocking) is recorded as “α5β1-mediated; also recorded: specific for α5β1 integrins”. Also, the “Fibronectin (ECM) production by adhered HUVECs” value in assay [2] is given as “good fibronectin production”. In addition, the “Fibronectin secretion by adhered HUVECs” value in assay [3] (after 48 hours) is reported as “fully covered with secreted fibronectin”. Further, the “Amount of fibronectin secretion, PR_b versus FN” value in assay [3] (all times examined) was “comparable for both substrates”. Further, in assay [4], the “Actin stress fibers and focal contacts” value was “displayed actin stress fibers and focal contacts”; the “Cytoskeletal organization and focal adhesion compared to FN” value was “better-developed cytoskeletal structure compared to FN; also recorded: stronger cytoskeletal organization and focal adhesion formation”. Also, the “HUVEC spreading (cell area)” value in assay [5] (1-24 hours) is recorded as “mostly spread”. Also, the “HUVEC spreading, rank among surfaces” value in assay [5] (all times examined, 1-72 hours) is listed as “spread the most”.
